The values below come from patent publication US7928097B2, “Photoreactive compounds and compositions” (priority 2001, dated 2011).

Where two headings read alike, the source gives them in different places.

As a reminder, the IC50 is the point on the concentration scale where inhibition reaches its midpoint.

The subject of test [1] is polynucleotide having the sequence ATACATGGTACATA
Briefly: Photoactivation and binding to 14mer polynucleotide. The settings on record: 1 mM ATACATGGTACATA, blue light as example 9; NMR. Here is the method: The procedure of example 9 was repeated with a 1 mM solution of a polynucleotide having the sequence ATACATGGTACATA, and using the compound obtained in example 2 in place of that obtained in example 1.

The test system of another test is HaCaT. As to the kind of experiment: Phototoxicity, neutral red dye uptake, HaCaT cells. It is filed as cell-based. The protocol:
(§1) 2×6 ft Cosmolux RA Plus (Cosmedico), 15500/100 W light sources were used, each filtered to attenuate UVB/UVC wavelengths. Irradiance was measured with a Waldmann PUMA meter, calibrated to the source using a double grating Spectroradiometer (Bentham, UK).
(§2) Immediately before use, the compounds were dissolved in warm Earle's Balanced Salt Solution (EBSS), sonicated and vortexed to assist dissolution. For experiments, cells were seeded at densities of 3- or 5×10^4 cells/cm^2. After overnight incubation, washed cells were incubated with test compounds in EBSS for 1 h at 310 K/5% CO2. Cells were then irradiated with 5 J cm^−2 glass filtered UVA (1.77 mW cm^−2: λmax 365 nm) for 50 min. Test compounds were removed and cells either prepared immediately for photogenotoxicity assays, or incubated with complete medium for 24 h before assessing phototoxicity. Control plates were treated identically to the test plates and sham irradiated.
(§3) Phototoxicity was monitored by measuring the uptake of neutral red dye into viable cells. Briefly, after irradiation cells were washed and then incubated with DMEM containing 5% FCS, 1% NEAA and 50 μg ml^−1 neutral red dye for 3 h at 310 K/5% CO2. After this time, cells were rapidly washed with formaldehyde containing 1% (w/v) CaCl2, and solubilised in 50% EtOH containing 1% acetic acid. Absorbance was read at 540 nm against a solubilisation solution as blank. The IC50 value was defined as the concentration of compound that inhibited dye uptake by 50% and was calculated using non-linear regression (Graphpad Prism). Goodness of fit was determined from the R^2 values of the curves and 95% confidence intervals.

A further test relates to A2780CIS. Briefly: Phototoxicity, neutral red dye uptake, A2780CIS cells. Type of test: cell-based. Here is the method: as §1, §2, §3
The subject of the next test is A2780. As to the kind of experiment: Phototoxicity, neutral red dye uptake, A2780 cells. Type of test: cell-based. The protocol: as §1, §2, §3
The mark [2] stands for this setting: dark, sham irradiated control, read-out: IC50 Value HaCaT Dark.
The mark [3] stands for this setting: irradiated 5 J cm^-2 UVA, λmax 365 nm, 50 min, neutral red uptake after 24 h, read-out: IC50 Value HaCaT 365 nm.
[4] abbreviates: dark, sham irradiated control, read-out: IC50 Value A2780CIS Dark.
Setting [5] is: irradiated 5 J cm^-2 UVA, λmax 365 nm, 50 min, neutral red uptake after 24 h, read-out: IC50 Value A2780CIS 365 nm.
Setting [6] is: dark, sham irradiated control, read-out: IC50 Value A2780 Dark.
The mark [7] stands for this setting: irradiated 5 J cm^-2 UVA, λmax 365 nm, 50 min, neutral red uptake after 24 h, read-out: IC50 Value A2780 365 nm.

Turning to “Cis,trans-[Pt^IV(en)(N3)2(OH)2] [Example 2]”, in test [1], the “Binding to 14mer polynucleotide after photoactivation” value is “binding of species containing the cis-[PtII(en)] moiety to the GG moiety had taken place”.
For the substance “Trans,trans,trans-[Pt(N3)2(OH)2(NH3)(2-pic)] [FM171]”, the IC50 in the test with HaCaT (setting [2]) was > 236 µM; with HaCaT (setting [3]) it was 55.3 µM; in the test with A2780CIS (setting [4]) it was > 236 µM; in the test with A2780CIS (setting [5]), 59.8 µM; in the test with A2780 (setting [6]), > 236 µM; in the test with A2780 (setting [7]), 51 µM.
Regarding “Trans,trans,trans-[Pt(N3)2(OH)2(NH3)(4-pic)] [FM174]”, the IC50 in the test on HaCaT (setting [2]) stood at 98.8 µM; in the test on HaCaT (setting [3]), 6.5 µM.
On to “Trans,trans,trans-[Pt(N3)2(OH)2(NH3)(py)] [FM165]”, for which the IC50 in the test with HaCaT (setting [2]) is > 244 µM; in the test with HaCaT (setting [3]) it was 6.1 µM; in the test on A2780CIS (setting [4]), > 244 µM; in the test with A2780CIS (setting [5]) it was 16.9 µM; in the test on A2780 (setting [6]), > 244 µM; in the test on A2780 (setting [7]), 1.9 µM.
For “Trans,trans,trans-[Pt(N3)2(OH)2(NH3)(tz)] [FM172]”, the IC50 was > 241 µM in the test with HaCaT (setting [2]); 5.8 µM in the test with HaCaT (setting [3]); > 241 µM in the test on A2780CIS (setting [4]); 16.1 µM in the test with A2780CIS (setting [5]); 187 µM with A2780 (setting [6]); 5.4 µM in the test on A2780 (setting [7]).
